{"source": "ChEMBL document CHEMBL1201862", "about": "“PubChem BioAssay data set” (2004)", "key": {"[1]": {"test": "microbe, parasite or virus in culture", "type": "functional", "conditions": "Mycobacterium tuberculosis"}, "Cytochrome P450 1A2": {"target": "T1, Cytochrome P450 1A2 (Homo sapiens, UniProt P05177)", "T1 sequence (P05177 whole entry)": "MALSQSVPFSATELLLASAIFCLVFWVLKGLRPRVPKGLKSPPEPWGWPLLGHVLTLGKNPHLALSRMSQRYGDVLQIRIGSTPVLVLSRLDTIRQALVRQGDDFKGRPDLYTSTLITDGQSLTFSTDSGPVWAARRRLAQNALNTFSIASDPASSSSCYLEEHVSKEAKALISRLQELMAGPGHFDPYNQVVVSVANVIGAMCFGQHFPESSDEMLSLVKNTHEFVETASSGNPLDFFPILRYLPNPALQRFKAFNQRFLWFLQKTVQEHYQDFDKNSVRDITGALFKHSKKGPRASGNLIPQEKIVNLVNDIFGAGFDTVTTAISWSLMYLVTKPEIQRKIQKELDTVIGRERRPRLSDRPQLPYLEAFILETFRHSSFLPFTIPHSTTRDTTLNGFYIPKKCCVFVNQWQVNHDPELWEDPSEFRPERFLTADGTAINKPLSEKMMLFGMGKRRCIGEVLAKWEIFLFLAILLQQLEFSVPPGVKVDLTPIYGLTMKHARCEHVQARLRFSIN"}, "Cytochrome P450 3A4": {"target": "Cytochrome P450 3A4 (Homo sapiens, UniProt P08684)", "sequence (P08684 whole entry)": "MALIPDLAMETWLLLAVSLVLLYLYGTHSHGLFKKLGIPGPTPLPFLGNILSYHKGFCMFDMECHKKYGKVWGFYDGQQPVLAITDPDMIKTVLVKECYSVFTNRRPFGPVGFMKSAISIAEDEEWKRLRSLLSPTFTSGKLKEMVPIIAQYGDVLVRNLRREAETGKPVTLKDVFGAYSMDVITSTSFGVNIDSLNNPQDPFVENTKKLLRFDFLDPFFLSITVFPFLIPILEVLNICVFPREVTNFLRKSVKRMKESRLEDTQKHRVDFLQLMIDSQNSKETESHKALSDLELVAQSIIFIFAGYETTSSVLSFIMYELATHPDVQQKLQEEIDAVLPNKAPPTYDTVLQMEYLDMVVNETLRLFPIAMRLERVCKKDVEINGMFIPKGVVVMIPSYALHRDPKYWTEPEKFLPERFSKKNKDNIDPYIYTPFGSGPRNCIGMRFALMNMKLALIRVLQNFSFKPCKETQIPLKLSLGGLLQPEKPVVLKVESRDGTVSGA"}, "[2]": {"target": "Induced myeloid leukemia cell differentiation protein Mcl-1 (Homo sapiens, UniProt Q07820)", "sequence (Q07820 whole entry)": "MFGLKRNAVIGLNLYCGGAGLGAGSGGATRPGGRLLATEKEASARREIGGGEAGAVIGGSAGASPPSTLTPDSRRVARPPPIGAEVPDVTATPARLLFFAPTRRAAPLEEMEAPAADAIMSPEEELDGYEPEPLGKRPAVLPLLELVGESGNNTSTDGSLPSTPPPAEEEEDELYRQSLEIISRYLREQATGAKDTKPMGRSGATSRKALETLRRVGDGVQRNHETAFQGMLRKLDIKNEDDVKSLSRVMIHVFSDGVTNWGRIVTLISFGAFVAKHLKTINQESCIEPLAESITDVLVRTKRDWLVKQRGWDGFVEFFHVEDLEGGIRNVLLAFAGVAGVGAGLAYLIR", "type": "functional"}, "cells [3]": {"test": "cells", "type": "functional"}, "[4]": {"target": "T2, Carboxy-terminal domain RNA polymerase II polypeptide A small phosphatase 1 (Homo sapiens, UniProt Q9GZU7)", "T2 sequence (Q9GZU7 whole entry)": "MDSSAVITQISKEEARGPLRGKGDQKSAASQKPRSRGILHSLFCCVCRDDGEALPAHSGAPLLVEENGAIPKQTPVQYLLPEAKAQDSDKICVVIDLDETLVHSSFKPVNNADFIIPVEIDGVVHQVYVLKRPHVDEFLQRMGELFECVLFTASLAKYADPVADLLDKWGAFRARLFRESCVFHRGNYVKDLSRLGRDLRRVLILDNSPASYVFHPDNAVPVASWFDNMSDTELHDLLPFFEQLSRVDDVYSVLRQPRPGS", "test": "inhibitors of CTDSP1, concentration-response testing, biochemical assay, absorbance-based, actives from ultra-high-throughput screening (AID 540297)", "type": "functional"}, "[5]": {"test": "NIH-3T3 fibroblast cytotoxicity, dose response, cytotoxicity control, cell-based, fluorescence, Alamar Blue, secondary assay (AID 2327);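 also: NIH-3T3 mouse fibroblasts cultured with fluconazole at 8 µg/mL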", "type": "functional"}, "[6]": {"test": "C. albicans growth with fluconazole, confirmation, fluorescence, retest (AID 2467)", "type": "functional, cell-based"}, "cells [7]": {"test": "cells", "type": "functional, cell-based"}, "cells [8]": {"test": "cells", "type": "functional, cell-based", "remark": "listed apart in the source"}, "[9]": {"test": "inhibitors of intracellular T. cruzi replication, confirmation, NIH3T3 host cells, beta-gal luminescence (AID 2044);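 also: luminescent beta-galactosidase reporter signal from transgenic T. cruzi replicating inside host cells; inhibitors lower the luminescence signal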", "type": "functional, cell-based"}, "[10]": {"test": "cytotoxicity toward NIH3T3 fibroblasts, dose response, counter-screen, cell-based, ATP luminescence, mouse fibroblasts (AID 2010);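 also: cells exposed to compound for about 90 hours before reading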", "type": "functional"}, "Cytochrome P450 2C19": {"target": "Cytochrome P450 2C19 (Homo sapiens, UniProt P33261)", "sequence (P33261 whole entry)": "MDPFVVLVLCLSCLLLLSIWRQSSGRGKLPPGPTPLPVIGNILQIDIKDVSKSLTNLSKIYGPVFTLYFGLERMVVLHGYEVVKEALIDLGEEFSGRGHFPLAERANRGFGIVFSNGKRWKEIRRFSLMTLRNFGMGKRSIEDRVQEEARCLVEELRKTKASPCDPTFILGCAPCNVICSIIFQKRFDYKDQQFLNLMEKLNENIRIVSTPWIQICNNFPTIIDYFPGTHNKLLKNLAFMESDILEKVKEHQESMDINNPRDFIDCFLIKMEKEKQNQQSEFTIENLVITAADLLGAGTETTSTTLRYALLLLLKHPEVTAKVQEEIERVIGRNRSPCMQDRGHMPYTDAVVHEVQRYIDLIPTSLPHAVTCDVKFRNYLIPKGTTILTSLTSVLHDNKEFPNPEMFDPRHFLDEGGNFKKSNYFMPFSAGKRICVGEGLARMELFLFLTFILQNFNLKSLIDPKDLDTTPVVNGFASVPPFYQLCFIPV", "test": "Cytochrome panel assay with activity outcomes. Panel member name: p450-cyp2c19 Compounds with AC50 equal or less than 10 uM are considered active", "type": "functional", "conditions": "read-out: AC50"}, "Cytochrome P450 2C9": {"target": "Cytochrome P450 2C9 (Homo sapiens, UniProt P11712)", "sequence (P11712 whole entry)": "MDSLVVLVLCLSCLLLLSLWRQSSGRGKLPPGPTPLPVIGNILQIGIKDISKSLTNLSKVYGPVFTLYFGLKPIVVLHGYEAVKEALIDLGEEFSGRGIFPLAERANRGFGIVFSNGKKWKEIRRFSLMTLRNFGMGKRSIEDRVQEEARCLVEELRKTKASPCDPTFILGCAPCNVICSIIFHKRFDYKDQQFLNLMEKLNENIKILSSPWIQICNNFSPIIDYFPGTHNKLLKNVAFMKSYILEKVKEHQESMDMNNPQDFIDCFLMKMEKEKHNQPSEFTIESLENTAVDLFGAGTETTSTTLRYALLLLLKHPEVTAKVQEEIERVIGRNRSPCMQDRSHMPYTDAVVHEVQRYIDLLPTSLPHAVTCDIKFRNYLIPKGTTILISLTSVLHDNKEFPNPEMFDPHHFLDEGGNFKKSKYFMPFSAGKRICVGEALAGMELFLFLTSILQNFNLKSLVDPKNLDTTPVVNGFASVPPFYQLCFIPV"}, "[11]": {"target": "Luciferin 4-monooxygenase (Photinus pyralis, UniProt P08659)", "sequence (P08659 whole entry)": "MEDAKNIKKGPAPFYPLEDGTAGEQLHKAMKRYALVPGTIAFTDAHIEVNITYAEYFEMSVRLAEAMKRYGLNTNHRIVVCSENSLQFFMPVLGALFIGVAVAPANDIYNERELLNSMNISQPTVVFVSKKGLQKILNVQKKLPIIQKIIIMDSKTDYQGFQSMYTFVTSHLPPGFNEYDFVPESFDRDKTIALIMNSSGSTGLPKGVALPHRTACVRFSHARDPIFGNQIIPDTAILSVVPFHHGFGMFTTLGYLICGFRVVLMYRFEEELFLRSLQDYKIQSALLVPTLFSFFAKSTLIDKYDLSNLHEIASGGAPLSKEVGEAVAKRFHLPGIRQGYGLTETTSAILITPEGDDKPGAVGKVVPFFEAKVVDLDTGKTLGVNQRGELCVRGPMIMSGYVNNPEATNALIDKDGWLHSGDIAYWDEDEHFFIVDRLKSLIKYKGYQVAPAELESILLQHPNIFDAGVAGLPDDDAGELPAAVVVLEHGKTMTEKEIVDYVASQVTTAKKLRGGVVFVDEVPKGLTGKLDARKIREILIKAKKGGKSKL", "test": "firefly luciferase enzyme inhibitors, dose response, biochemical, luminescence (AID 1891)"}, "[12]": {"test": "Luminescence Cell-Based Dose Confirmation HTS to Identify Inhibitors of Platelet Dense Granule Release. [Related pubchem assays: 1663 (Primary HTS), 1678 (Summary of Project)]", "type": "functional"}, "[13]": {"test": "P. falciparum Dd2 growth inhibitors, dose response, SYBR Green, cherry-picked samples (AID 1159567)", "type": "functional, cell-based"}, "[14]": {"test": "growth suppression of PTEN-null colon cells, dose response, cell-based, HCT116 PTEN knockout (AID 1047);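 also: cells exposed to compound for 60 hours before readout; potency for loss of cell viability measured by luminescence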", "type": "functional"}, "[15]": {"test": "growth suppression of beta-catenin-knockout colon cells, dose response, cell-based, HCT116, human colon tumor (AID 1045);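 also: cells exposed to compound for 60 hours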", "type": "functional"}, "H9c2": {"test_system": "H9c2", "test": "cells", "type": "functional, cell-based", "conditions": "Rattus norvegicus, H9c2, Myocardium"}}, "note": "Calls of active or inactive are those of the source."}
{"compound": "O=C(C1CCC1)N1CCN(S(=O)(=O)c2ccc(Br)cc2Cl)CC1", "values": [{"measurement": "CC50", "setting": "[1]", "value": "> 40 µM (active)"}]}
{"compound": "COc1ccc(C(=O)N2CCC[C@@]3(CCN(C(=O)NC(C)C)C3)C2)cc1", "values": [{"measurement": "AC50", "setting": "Cytochrome P450 1A2", "value": "12.6 µM (inconclusive)"}, {"measurement": "AC50", "setting": "Cytochrome P450 3A4", "value": "20 µM (inconclusive)"}]}
{"compound": "CC(=O)NC1=C(NC2CCS(=O)(=O)C2)C(=O)c2ccccc2C1=O", "note": "(centres undefined)", "values": [{"measurement": "IC50", "setting": "[2]", "value": "2.54 µM (active)"}]}
{"compound": "Cc1ccc(CN2CC(C(=O)OCc3ccccc3Cl)CC2=O)cc1", "note": "(centres undefined)", "values": [{"measurement": "IC50", "setting": "cells [3]", "value": "7.41 µM (active)"}]}
{"compound": "CCOC(=O)COc1ccc(C(=O)NC2CCCCC2)cc1", "values": [{"measurement": "IC50", "setting": "cells [3]", "value": "7.69 µM (active)"}]}
{"compound": "O=C(COC(=O)c1ccc(S(=O)(=O)N2CCCCC2)cc1)NCc1ccco1", "values": [{"measurement": "IC50", "setting": "[4]", "value": "10.5 µM (active)"}]}
{"compound": "Cc1cc(Cl)nc(NC(=O)CSc2ccc(Cl)cc2)n1", "values": [{"measurement": "AC50", "setting": "Cytochrome P450 1A2", "value": "5.01 µM (inconclusive)"}]}
{"compound": "COC(=O)C1CCN(C(=O)COC(=O)CNS(=O)(=O)c2ccc(SC)c([N+](=O)[O-])c2)CC1", "values": [{"measurement": "IC50", "setting": "[4]", "value": "13.5 µM (active)"}]}
{"compound": "CCOc1ccc2nc(N=C(S)N(C)C)sc2c1", "values": [{"measurement": "EC50", "setting": "[5]", "value": "> 150 µM (inactive)"}, {"measurement": "EC50", "setting": "[6]", "value": "2.33 µM (active)"}]}
{"compound": "CCN(C(=O)CSc1nc[nH]n1)C1CCCCC1", "values": [{"measurement": "EC50", "setting": "cells [7]", "value": "> 350 µM (not active)"}, {"measurement": "EC50", "setting": "cells [8]", "value": "> 350 µM (not active)"}]}
{"compound": "CCOC(=O)c1cc(C(O)(C(=O)OC)C(F)(F)F)c(/N=C/N(C)C)o1", "note": "(centres undefined)", "values": [{"measurement": "IC50", "setting": "[2]", "value": "< 0.4 µM (not active)"}]}
{"compound": "CCc1c(C)nc2ccc(OC)cc2c1S", "values": [{"measurement": "IC50", "setting": "[2]", "value": "0.628 µM (active)"}]}
{"compound": "CC(C)OC(=O)CCCCCN1C(=O)CSC1=S", "values": [{"measurement": "EC50", "setting": "[9]", "value": "4.77 µM (active)"}, {"measurement": "CC50", "setting": "[1]", "value": "31.3 µM (active)"}, {"measurement": "EC50", "setting": "[10]", "value": "8.46 µM (active)"}, {"measurement": "IC50", "setting": "cells [3]", "value": "6.29 µM (active)"}]}
{"compound": "COc1cc2c(cc1OC)C(c1ccc(N)cc1)=NNC(=O)C2", "values": [{"measurement": "AC50", "setting": "Cytochrome P450 2C19", "value": "15.8 µM (inconclusive)"}, {"measurement": "AC50", "setting": "Cytochrome P450 1A2", "value": "39.8 µM (inconclusive)"}, {"measurement": "AC50", "setting": "Cytochrome P450 2C9", "value": "39.8 µM (inconclusive)"}]}
{"compound": "COc1ccc(CNC(=O)/C=C\\c2ccc3[nH]cc(CCN(C)C)c3c2)cc1", "values": [{"measurement": "AC50", "setting": "Cytochrome P450 1A2", "value": "39.8 µM (inconclusive)"}]}
{"compound": "COc1cnn(-c2ccc(Br)cc2)c(=O)c1SCc1ccccc1", "values": [{"measurement": "IC50", "setting": "[2]", "value": "3.25 µM (not active)"}]}
{"compound": "CCOc1ccc(C(C)=O)cc1N1C(=O)C2C3C=CC(C3)C2C1=O", "note": "(centres undefined)", "values": [{"measurement": "IC50", "setting": "[4]", "value": "15.8 µM (active)"}]}
{"compound": "O=C(CSc1nnc(C2CC2)n1-c1ccccc1)Nc1ccc(N2CCOCC2)cc1", "values": [{"measurement": "EC50", "setting": "[11]", "value": "> 112 µM (not active)"}, {"measurement": "EC50", "setting": "[12]", "value": "> 112 µM (not active)"}]}
{"compound": "CCS(=O)(=O)N1CCC2(CC1)CN(C(=O)Nc1cccc(F)c1)[C@H](CO)c1c2c2ccc(OC)cc2n1C", "values": [{"measurement": "AC50", "setting": "[13]", "value": "4.52 µM (active)"}]}
{"compound": "COc1ccc(/C=C(/NC(=O)c2ccccc2)c2nc3cc(Cl)ccc3[nH]2)cc1OC", "values": [{"measurement": "EC50", "setting": "[5]", "value": "> 150 µM (inconclusive)"}, {"measurement": "EC50", "setting": "[6]", "value": "4.44 µM (active)"}]}
{"compound": "CCCCn1nc(C(=O)N[C@@H](CCSC)c2nc3ccccc3[nH]2)c2ccccc2c1=O", "values": [{"measurement": "CC50", "setting": "[1]", "value": "> 40 µM (active)"}]}
{"compound": "CC(=O)N1CCC2(CC1)CC(=O)c1cc(OCC(=O)N3CCN(C)CC3)ccc1O2", "values": [{"measurement": "AC50", "setting": "Cytochrome P450 1A2", "value": "39.8 µM (inconclusive)"}]}
{"compound": "O=C(c1ccc2c(c1)OCO2)N1CCC2(CC1)Oc1ccc(F)cc1C(=O)C21CC(c2cccnc2)=NO1", "note": "(centres undefined)", "values": [{"measurement": "EC50", "setting": "[5]", "value": "49.2 µM (active)"}, {"measurement": "EC50", "setting": "[6]", "value": "0.566 µM (inconclusive)"}]}
{"compound": "CNC(=O)c1ccc(-c2sc3nc(N4CCOCC4)c4c(c3c2N)CCCC4)o1", "values": [{"measurement": "EC50", "setting": "[14]", "value": "23.5 µM (active)"}, {"measurement": "EC50", "setting": "[15]", "value": "24.6 µM (active)"}, {"measurement": "IC50", "setting": "H9c2", "value": "14.2 µM (active)"}]}
{"compound": "Cc1cccc(OCc2nnc(SCC(=O)Nc3ncc(C)s3)o2)c1", "values": [{"measurement": "EC50", "setting": "[11]", "value": "> 112 µM (not active)"}, {"measurement": "EC50", "setting": "[12]", "value": "> 112 µM (not active)"}]}
